In patent EP0535269A1, “Pharmaceutical compositions containing thiazolidinedione derivatives” (TANABE SEIYAKU CO., LTD., priority 1991, dated 1993):

Assay: Bioavailability of a solution in a water-soluble polymer: plasma levels after oral administration
Format: in vivo
Conditions: dogs, control formulation: untreated original drug (20 µm) with equal amount of corn starch in gelatin capsule, 100 mg/Dog, HPLC (Fig. 4)
Method: 5-[(2,4-dioxothiazolidin-5-yl)methyl]-2-[(2-naphthyl)methyl]benzoxazole (3 g) was dissolved in polyethyleneglycol (average molecule weight: approximately 380-420, trade name: Macrogol-400, Sanyo Chemical Industries Ltd.) (100 ml) to provide the preparation of the present invention. Mixture of an equal amount of untreated original drug (particle size: 20 µm) and corn starch was encapsulated in a gelatin capsule to give a formulation used as a control.
Four dogs (10 - 15 kg) were used in this experiment. The preparation of the invention was administered to dogs orally at the dose of 10 mg/Dog. In the separate experiment, the control formulation was administered at 100 mg/Dog. The blood was taken from the dogs and the concentration of the active compound (I) in the plasma sample was assayed in the same manner as described in the above. The time-course of the plasma levels of the drug was plotted.
In the figure, closed circles represent the average plasma levels of the compound (I) following the administration of the solution of the invention, and semi-closed circles represent those following the administration of untreated original drug.

SMILES: O=C1NC(=O)C(Cc2ccc3oc(Cc4ccc5ccccc5c4)nc3c2)S1 (stereo not shown) [raw material, 5-[(2,4-dioxothiazolidin-5-yl)methyl]-2-[(2-naphthyl)methyl]benzoxazole]
- plasma levels of the compound (I): extremely low
